Source: patent US9693997B2, “Antiviral compounds” (priority 2013, dated 2017)

Key:
[1] = tested on: Pseudotyped HCV GT1b particles (HCVpp), entry into Huh7-high CD81 cells; test: microbe, parasite or virus in culture; assay type: cell-based, HCV GT1b Con1 strain; settings: Hepatitis C virus, GT1B, 72 h, read-out: HCVpp GT-1b (EC50, μM)
[2] = tested on: pseudotyped VSV G particles (VSVpp) in Huh7-high CD81 cells; test: microbe, parasite or virus in culture; assay type: cell-based, vesicular stomatitis virus; settings: Vesicular stomatitis virus, 72 h, read-out: VSVpp (EC50, μM)

## CN(CCOc1ccc(-c2c(Cl)cc(Nc3n[nH]c(N)n3)cc2Cl)cc1)C(=O)OC(C)(C)C [Compound 261, {2-[4′-(5-Amino-1H-[1,2,4]triazol-3-ylamino)-2′,6′-dichloro-biphenyl-4-yloxy]-ethyl}-methyl-carbamic acid tert-butyl ester]
[1]
  EC50: 0.033 µM
[2]
  EC50: 4.26 µM

## Nc1nc(Nc2cc(Cl)c(-c3ccc(OC4CCNCC4)cc3)c(Cl)c2)n[nH]1 [Compound 262, N*3*-[2,6-Dichloro-4′-(piperidin-4-yloxy)-biphenyl-4-yl]-1H-[1,2,4]triazole-3,5-diamine]
[1]
  EC50: 0.05 µM
[2]
  EC50: 4.87 µM

## CNCCOc1ccc(-c2c(Cl)cc(Nc3n[nH]c(N)n3)cc2Cl)cc1 [Compound 263, N*3*-[2,6-Dichloro-4′-(2-methylamino-ethoxy)-biphenyl-4-yl]-1H-[1,2,4]triazole-3,5-diamine]
[1]
  EC50: 0.059 µM
[2]
  EC50: 3.75 µM

## Nc1nc(Nc2cc(Cl)c(-c3ccc(OCCC4CCCN4)cc3)c(Cl)c2)n[nH]1 (stereo not drawn) [Compound 264, N*3*-[2,6-Dichloro-4′-(2-pyrrolidin-2-yl-ethoxy)-biphenyl-4-yl]-1H-[1,2,4]triazole-3,5-diamine]
[1]
  EC50: 0.048 µM
[2]
  EC50: 6.5 µM

## CC(C)(C)OC(=O)N1CCCC1CCOc1ccc(-c2c(Cl)cc(Nc3n[nH]c(N)n3)cc2Cl)cc1 (stereo not drawn) [Compound 266, 2-{2-[4′-(5-Amino-1H-[1,2,4]triazol-3-ylamino)-2′,6′-dichloro-biphenyl-4-yloxy]-ethyl}-pyrrolidine-1-carboxylic acid tert-butyl ester]
[1]
  EC50: 0.103 µM
[2]
  EC50: > 10 µM

## CC(C)(C)OC(=O)N1CCC[C@@H]1COc1ccc(-c2c(Cl)cc(Nc3n[nH]c(N)n3)cc2C(F)(F)F)cc1 [Compound 267, (R)-2-[4′-(5-Amino-1H-[1,2,4]triazol-3-ylamino)-2′-chloro-6′-trifluoromethyl-biphenyl-4-yloxymethyl]-pyrrolidine-1-carboxylic acid tert-butyl ester]
[1]
  EC50: 0.048 µM
[2]
  EC50: 9.62 µM

## CC(C)(C)OC(=O)N1CCC(Oc2ccc(-c3c(Cl)cc(Nc4n[nH]c(N)n4)cc3Cl)cc2)CC1 [Compound 268, 4-[4′-(5-Amino-1H-[1,2,4]triazol-3-ylamino)-2′,6′-dichloro-biphenyl-4-yloxy]-piperidine-1-carboxylic acid tert-butyl ester]
[1]
  EC50: 0.17 µM
[2]
  EC50: > 10 µM

## CN(C)CCOc1ccc(-c2c(Cl)cc(Nc3n[nH]c(N)n3)cc2Cl)cc1 [Compound 269, N*3*-[2,6-Dichloro-4′-(2-dimethylamino-ethoxy)-biphenyl-4-yl]-1H-[1,2,4]triazole-3,5-diamine]
[1]
  EC50: 0.122 µM
[2]
  EC50: 6.09 µM

## Nc1nc(Nc2cc(Cl)c(-c3ccc(OC[C@@H]4CCCN4)cc3)c(C(F)(F)F)c2)n[nH]1 [Compound 270, N*3*-[6-Chloro-4′-((S)-1-pyrrolidin-2-ylmethoxy)-2-trifluoromethyl-biphenyl-4-yl]-1H-[1,2,4]triazole-3,5-diamine]
[1]
  EC50: 0.117 µM
[2]
  EC50: 33.3 µM

## Nc1nc(Nc2cc(Cl)c(-c3ccc(O[C@H]4CCNC4)cc3)c(Cl)c2)n[nH]1 [Compound 271, N*3*-[2,6-Dichloro-4′-((S)-pyrrolidin-3-yloxy)-biphenyl-4-yl]-1H-[1,2,4]triazole-3,5-diamine]
[1]
  EC50: 0.12 µM
[2]
  EC50: 4.39 µM

## Nc1nc(Nc2cc(Cl)c(-c3ccc(OC[C@H]4CCCN4)cc3)c(Cl)c2)n[nH]1 [Compound 272, N*3*-[2,6-Dichloro-4′-((R)-1-pyrrolidin-2-ylmethoxy)-biphenyl-4-yl]-1H-[1,2,4]triazole-3,5-diamine]
[1]
  EC50: 0.147 µM
[2]
  EC50: 4.49 µM

## CC(C)(C)OC(=O)N1CC[C@H](Oc2ccc(-c3c(Cl)cc(Nc4n[nH]c(N)n4)cc3Cl)cc2)C1 [Compound 273, (S)-3-[4′-(5-Amino-1H-[1,2,4]triazol-3-ylamino)-2′,6′-dichloro-biphenyl-4-yloxy]-pyrrolidine-1-carboxylic acid tert-butyl ester]
[1]
  EC50: 0.28 µM
[2]
  EC50: > 10 µM

## CC1(C)OCC(COc2ccc(-c3c(Cl)cc(Nc4n[nH]c(N)n4)cc3Cl)cc2)O1 (stereo not drawn) [Compound 274, N*3*-[2,6-Dichloro-4′-(2,2-dimethyl-[1,3]dioxolan-4-ylmethoxy)-biphenyl-4-yl]-1H-[1,2,4]triazole-3,5-diamine]
[1]
  EC50: 0.121 µM
[2]
  EC50: 34.1 µM

## CC(C)(C)OC(=O)N1CCC[C@@H]1COc1ccc(-c2c(Cl)cc(Nc3n[nH]c(N)n3)cc2Cl)cc1 [Compound 275, (R)-2-[4′-(5-Amino-1H-[1,2,4]triazol-3-ylamino)-2′,6′-dichloro-biphenyl-4-yloxymethyl]-pyrrolidine-1-carboxylic acid tert-butyl ester]
[1]
  EC50: 0.285 µM
[2]
  EC50: > 10 µM

## CC(C)(C)OC(=O)COc1ccc(-c2c(Cl)cc(Nc3n[nH]c(N)n3)cc2Cl)cc1 [Compound 276, [4′-(5-Amino-1H-[1,2,4]triazol-3-ylamino)-2′,6′-dichloro-biphenyl-4-yloxy]-acetic acid tert-butyl ester]
[1]
  EC50: 0.168 µM
[2]
  EC50: > 10 µM

## CC(C)(C)OC(=O)N1CCC[C@H]1COc1ccc(-c2c(Cl)cc(Nc3n[nH]c(N)n3)cc2C(F)(F)F)cc1 [Compound 277, (S)-2-[4′-(5-Amino-1H-[1,2,4]triazol-3-ylamino)-2′-chloro-6′-trifluoromethyl-biphenyl-4-yloxymethyl]-pyrrolidine-1-carboxylic acid tert-butyl ester]
[1]
  EC50: 0.312 µM
[2]
  EC50: 27.9 µM

## COCCOc1ccc(-c2c(Cl)cc(Nc3n[nH]c(N)n3)cc2Cl)cc1 [Compound 278, N*3*-[2,6-Dichloro-4′-(2-methoxy-ethoxy)-biphenyl-4-yl]-1H-[1,2,4]triazole-3,5-diamine]
[1]
  EC50: 0.264 µM
[2]
  EC50: 5.31 µM

## CC(C)(C)OC(=O)N1CCC[C@H]1COc1ccc(-c2c(Cl)cc(Nc3n[nH]c(N)n3)cc2Cl)cc1 [Compound 280, (S)-2-[4′-(5-Amino-1H-[1,2,4]triazol-3-ylamino)-2′,6′-dichloro-biphenyl-4-yloxymethyl]-pyrrolidine-1-carboxylic acid tert-butyl ester]
[1]
  EC50: 0.401 µM
[2]
  EC50: > 10 µM

## Nc1nc(Nc2cc(Cl)c(-c3ccc(OCCN4CCOCC4)cc3)c(Cl)c2)n[nH]1 [Compound 281, N*3*-[2,6-Dichloro-4′-(2-morpholin-4-yl-ethoxy)-biphenyl-4-yl]-1H-[1,2,4]triazole-3,5-diamine]
[1]
  EC50: 0.244 µM
[2]
  EC50: 23.4 µM

## Nc1nc(Nc2cc(Cl)c(-c3ccc(OCC(O)CO)cc3)c(Cl)c2)n[nH]1 (stereo not drawn) [Compound 282, 3-[4′-(5-Amino-1H-[1,2,4]triazol-3-ylamino)-2′,6′-dichloro-biphenyl-4-yloxy]-propane-1,2-diol-diamine]
[1]
  EC50: 0.213 µM
[2]
  EC50: 39.7 µM

## Nc1nc(Nc2cc(Cl)c(-c3ccc(OCCCN4CCOCC4)cc3)c(Cl)c2)n[nH]1 [Compound 283, N*3*-[2,6-Dichloro-4′-(3-morpholin-4-yl-propoxy)-biphenyl-4-yl]-1H-[1,2,4]triazole-3,5-diamine]
[1]
  EC50: 0.523 µM
[2]
  EC50: > 10 µM

## Nc1nc(Nc2cc(Cl)c(-c3ccc(OCc4ccccn4)cc3)c(Cl)c2)n[nH]1 [Compound 284, N*3*-[2,6-Dichloro-4′-(pyridin-2-ylmethoxy)-biphenyl-4-yl]-1H-[1,2,4]triazole-3,5-diamine]
[1]
  EC50: 0.576 µM
[2]
  EC50: > 10 µM

## Nc1nc(Nc2cc(Cl)c(-c3ccc(OCC(=O)O)cc3)c(Cl)c2)n[nH]1 [Compound 285, [4′-(5-Amino-1H-[1,2,4]triazol-3-ylamino)-2′,6′-dichloro-biphenyl-4-yloxy]-acetic acid]
[1]
  EC50: 4.97 µM
[2]
  EC50: > 10 µM

## CS(=O)(=O)c1ccc(-c2ccc(Nc3n[nH]c(N)n3)cc2S(F)(F)(F)(F)F)cc1 [Compound 288, N*3*-(4′-Methanesulfonyl-2-pentafluorosulfur-biphenyl-4-yl)-1H-[1,2,4]triazole-3,5-diamine]
[1]
  EC50: 1.23 µM
[2]
  EC50: 8.93 µM

## CS(=O)(=O)Nc1cccc(-c2c(Cl)cc(Nc3n[nH]c(N)n3)cc2C(F)(F)F)c1 [Compound 290, N-(4′-(5-amino-1H-1,2,4-triazol-3-ylamino)-2′-chloro-6′-(trifluoromethyl)biphenyl-3-yl)methanesulfonamide]
[1]
  EC50: 0.149 µM
[2]
  EC50: 14.4 µM

## CNC(=O)c1ccc(-c2c(Cl)cc(Nc3n[nH]c(N)n3)cc2C(F)(F)F)cc1F [Compound 291, 4′-(5-amino-1H-1,2,4-triazol-3-ylamino)-2′-chloro-3-fluoro-N-methyl-6′-(trifluoromethyl)biphenyl-4-carboxamide]
[1]
  EC50: 0.325 µM
[2]
  EC50: 21.5 µM

## CNC(=O)c1cc(-c2c(Cl)cc(Nc3n[nH]c(N)n3)cc2C(F)(F)F)ccc1F [Compound 292, 4′-(5-amino-1H-1,2,4-triazol-3-ylamino)-2′-chloro-4-fluoro-N-methyl-6′-(trifluoromethyl)biphenyl-3-carboxamide]
[1]
  EC50: 0.647 µM
[2]
  EC50: 29.2 µM

## Nc1nc(Nc2cc(Cl)c(-c3ccc(C(=O)NCCO)c(F)c3)c(C(F)(F)F)c2)n[nH]1 [Compound 293, 4′-(5-amino-1H-1,2,4-triazol-3-ylamino)-2′-chloro-3-fluoro-N-(2-hydroxyethyl)-6′-(trifluoromethyl)biphenyl-4-carboxamide]
[1]
  EC50: 0.139 µM
[2]
  EC50: 15.7 µM

## Nc1nc(Nc2cc(Cl)c(-c3ccc(F)c(C(=O)NCCO)c3)c(C(F)(F)F)c2)n[nH]1 [Compound 294, 4′-(5-amino-1H-1,2,4-triazol-3-ylamino)-2′-chloro-4-fluoro-N-(2-hydroxyethyl)-6′-(trifluoromethyl)biphenyl-3-carboxamide]
[1]
  EC50: 0.544 µM
[2]
  EC50: 38.3 µM

## Nc1nc(Nc2cc(Cl)c(-c3ccc(S(=O)(=O)NC4COC4)cc3)c(C(F)(F)F)c2)n[nH]1 [Compound 295, 4′-(5-amino-1H-1,2,4-triazol-3-ylamino)-2′-chloro-N-(oxetan-3-yl)-6′-(trifluoromethyl)biphenyl-4-sulfonamide]
[1]
  EC50: 0.022 µM
[2]
  EC50: 10 µM
